Experimental findings from ChEMBL document CHEMBL4342431, “Synthesis and antileishmanial evaluation of thiazole orange analogs” (Bioorg Med Chem Lett, 2020) are described below.

Series [1] deals with Leishmania donovani. Put plainly: Antileishmanial activity against Leishmania donovani Ld1s intracellular amasitgote infected in J774 cells incubated for 72 hrs by non-radioactive cell proliferation assay. It is filed as functional, organism-based. To be noted: J774, 72 h.
The subject of another series is J774. In words: Cytotoxicity against mouse J774 cells assessed as reduction in cell viability incubated for 72 hrs by MTT assay. It is filed as cell-based. The conditions noted are these: J774, 72 h. A general note: Tetrazolium assays rely on reduction of a dye to a coloured formazan, in cell work by metabolically active cells.
The test system of series [2] is Leishmania donovani. Put plainly: Antileishmanial activity against Leishmania donovani LV82 intracellular amastigotes infected in murine peritoneal macrophage incubated for […] by beta-lactamase reporter gene based spectrophotometry. It is filed as functional, organism-based. A general note: In a reporter assay the amount or activity of a reporter protein is the signal.

The nature of series [3]: Selectivity index, ratio of IC50 for mouse peritoneal macrophages to IC50 for Leishmania donovani LV82 intracellular amastigotes. Format: toxicity, cell-based. To be noted: read-out: Ratio IC50.
For series [4], the system named is Leishmania donovani. In words: Antileishmanial activity against Leishmania donovani LV82 promastigotes infected in BALB/c mouse assessed as reduction in liver parasitemia at 1.2 mg/kg, ip administered for 5 days by Geimsa staining based assay relative to control. Format: functional. Further details: scale not given: the % may be the effect or the level left.
The nature of series [5]: Selectivity index, ratio of IC for mouse J774 cells to IC50 for Leishmania donovani Ld1s promastigotes. Format: toxicity. The conditions noted are these: J774 cells versus Leishmania donovani Ld1s promastigotes, read-out: Ratio IC50.
A short description of series [6]: Binding affinity to 5'-dCCAAAATTTTG CTCT CAAAATTTTGG-3' DNA (unknown origin) assessed as change in melting temperature at 2:1 ligand and DNA by specrophotometry.
Series [7] is described as follows: Binding affinity to 5'-dCCAAAAGTTTTG CTCT CAAAACTTTTGG-3' DNA (unknown origin) assessed as change in melting temperature at 2:1 ligand and DNA by specrophotometry.
Series [8] in a line: Binding affinity to 5'-dCCAAAATTTTG CTCT CAAAATTTTGG-3' DNA (unknown origin) assessed as DNA intercalation incubated for 5 mins by circular dichroism method.
Series [9] concerns Leishmania donovani. In words: Antileishmanial activity against Leishmania donovani LV82 amastigotes infected in mouse peritoneal microphage incubated for 72 hrs by DAPI staining based assay. It is filed as functional, organism-based. To be noted: LV82, 72 h.

Activity calls are given as the source filed them. The calls are words filed in the database; no cut-off is given here.

Broadly, the IC50 is the concentration that gives 50% inhibition. Regarding `N=C(N)c1ccc(OCCCCCOc2ccc(C(=N)N)cc2)cc1` [PENTAMIDINE], in the series with Leishmania donovani [1], the IC50 was determined as 3100 nM.

Turning to `COc1cc([C@@H]2c3cc4c(cc3[C@H](O)[C@H]3COC(=O)[C@H]23)OCO4)cc(OC)c1OC` [PODOFILOX], the IC50 in the series with J774 was 23 nM.

In the case of `CN1/C(=C/c2cc[n+](C)c3ccccc23)Sc2ccccc21.Cc1ccc(S(=O)(=O)[O-])cc1`, inhibition in the series with Leishmania donovani [2] was half-maximal at 21 nM (IC50). The selectivity ratio in series [3] was found to be 25. Further, in the series with Leishmania donovani [4], the Activity stood at 48%.

As for `CN1/C(=C/c2cc[n+](Cc3ccccc3)c3ccccc23)Sc2ccccc21`, the values for the IC50 with Leishmania donovani [1] and in the series on J774 were 26 nM and 190 nM, respectively. For the same compound, the selectivity ratio in [5] was found to be 7.

As usually defined, the ΔTm is the change in melting temperature against a reference sample. As to `Cc1ccc2c(c1)c(/C=C1\Sc3ccccc3N1C)cc[n+]2C`, the figures for the IC50 with Leishmania donovani [1] and in the series with J774 were 31 nM and 200 nM, respectively. Also, the selectivity ratio in [5] stood at 6.5. For the same compound, the ΔTm in series [6] stood at 5 °C; in [7] it was 4 °C. Moreover, the outcome in [8] was Active.

In the case of `Cc1cccc2c1c(/C=C1\Sc3ccccc3N1C)cc[n+]2C`, the IC50 in the series with Leishmania donovani [1] stood at 24 nM; in the series on J774, 120 nM. Also, the selectivity ratio in [5] was 5. The values for the ΔTm in [6] and in series [7] were 3 °C and 4 °C, respectively.

As to `CN1/C(=C/c2cc[n+](C)c3cccc(Cl)c23)Sc2ccccc21`, the IC50 in the series on Leishmania donovani [1] was determined as 16 nM; in the series on J774, 130 nM. Besides, in series [5], the selectivity ratio was 8.1.

As to `COc1ccc2c(c1)c(/C=C1\Sc3ccccc3N1C)cc[n+]2C`, the IC50 with Leishmania donovani [1] amounted to 28 nM; in the series on J774 it was 200 nM. Further, the selectivity ratio in [5] stood at 7.1.

Take `CN1/C(=C/c2cc[n+](C)c3cc(-c4ccccc4)ccc23)Sc2ccccc21`: the half-inhibitory concentration (IC50) came to 13 nM in the series on Leishmania donovani [1] and 69 nM in the series with J774. The selectivity ratio in series [5] stood at 5.3.

With `CN1C=CS/C1=C\c1cc[n+](C)c2ccccc12`, the IC50 turned out to be 160 nM in the series on Leishmania donovani [1] and 1500 nM in the series with J774. In addition, the selectivity ratio in series [5] was 9.4. Besides, the figures for the ΔTm in series [6] and in series [7] were 2 °C and 1 °C, respectively.

In the case of `CN1/C(=C/c2cc[n+](C)c3c(-c4ccccc4)cccc23)Sc2ccccc21`, the IC50 with Leishmania donovani [1] is 24 nM; in the series with J774, 200 nM. The selectivity ratio in [5] was 8.3.

With `COc1cccc2c1c(/C=C1\Sc3ccccc3N1C)cc[n+]2C`, the IC50 with Leishmania donovani [1] was 25 nM; in the series with J774, 86 nM. For the same compound, the selectivity ratio in series [5] worked out at 3.4.

In the case of `CN1/C(=C/c2cccc[n+]2C)Sc2ccccc21`, the IC50 was found to be 290 nM in the series with Leishmania donovani [1], 2500 nM in the series with J774 and 1700 nM in the series with Leishmania donovani [9]. Besides, the selectivity ratio in series [5] is 8.6. Also, the ΔTm in [6] and in [7] was less than 1 °C each time.

Regarding `Cc1ccc2c(/C=C3\Sc4ccccc4N3C)cc[n+](C)c2c1`, the half-maximal inhibitory concentration (IC50) in the series with Leishmania donovani [1] was 37 nM; in the series on J774, 120 nM. Besides, the selectivity ratio in series [5] was 3.2. The ΔTm in [6] and in [7] was 4 °C throughout.

In the case of `Cc1cccc2c(/C=C3\Sc4ccccc4N3C)cc[n+](C)c12`, the IC50 in the series with Leishmania donovani [1] is 30 nM; in the series on J774, 120 nM. In addition, the selectivity ratio in series [5] turned out to be 4. The ΔTm in series [6] worked out at 4 °C; in [7], 3 °C.

Take `CN1/C(=C/c2cc[n+](C)c3cccc(-c4ccccc4)c23)Sc2ccccc21`: the IC50 worked out at 42 nM with Leishmania donovani [1] and 160 nM in the series on J774. Also, the selectivity ratio in series [5] turned out to be 3.8. Besides, the values for the shift in melting temperature (ΔTm) in series [6] and in [7] were 3 °C and 2 °C, respectively.

For `CN1/C(=C/c2cc[n+](C)c3ccc(Cl)cc23)Sc2ccccc21`, the IC50 was 31 nM in the series with Leishmania donovani [1] and 310 nM in the series with J774. Also, in series [5], the selectivity ratio was 10.

In the case of `CN1/C(=C/c2cc[n+](C)c3ccccc23)Sc2ccccc21` [listing 1 of 2 here], the ΔTm in series [6] and in [7] was 4 °C each time.

Regarding `COc1ccc2c(/C=C3\Sc4ccccc4N3C)cc[n+](C)c2c1`, the IC50 with Leishmania donovani [1] stood at 35 nM; in the series on J774, 140 nM. Moreover, the selectivity ratio in series [5] came to 4.

As for `CCC[n+]1ccc(/C=C2\Sc3ccccc3N2C)c2ccccc21`, the concentration for half-maximal inhibition (IC50) was 13 nM with Leishmania donovani [1] and 140 nM in the series with J774. Besides, the selectivity ratio in series [5] is 11.

Turning to `CN1/C(=C/c2cc[n+](C)c3ccccc23)Sc2ccccc21` [listing 2 of 2 here], the IC50 in the series with Leishmania donovani [1] is 14 nM; in the series with J774, 190 nM. For the same compound, the selectivity ratio in series [5] worked out at 14.

As for `COc1cccc2c(/C=C3\Sc4ccccc4N3C)cc[n+](C)c12`, the IC50 in the series on Leishmania donovani [1] stood at 30 nM; in the series on J774 it was 59 nM. Also, in series [5], the selectivity ratio worked out at 2.

Take `CN1/C(=C/c2cc[n+](C)c3ccc(-c4ccccc4)cc23)Sc2ccccc21`: the IC50 was determined as 37 nM in the series with Leishmania donovani [1] and 180 nM in the series with J774. In series [5], the selectivity ratio came to 4.9.

Turning to `CC[n+]1ccc(/C=C2\Sc3ccccc3N2C)c2ccccc21`, the IC50 came out at 12 nM in the series with Leishmania donovani [1], 170 nM in the series on J774 and 72 nM in the series on Leishmania donovani [9]. Also, the selectivity ratio in series [5] was found to be 14.

For `CN1/C(=C/c2cc[n+](C)c3cc(Cl)ccc23)Sc2ccccc21`, the IC50 worked out at 34 nM with Leishmania donovani [1] and 180 nM in the series with J774. The selectivity ratio in series [5] worked out at 5.3.

Turning to `CN1C=CC(=Cc2sc3ccccc3[n+]2C)C=C1`, the IC50 is 140 nM in the series on Leishmania donovani [1], 2800 nM in the series on J774 and 960 nM in the series on Leishmania donovani [9]. For the same compound, the selectivity ratio in [5] turned out to be 20. The shift in melting temperature (ΔTm) was 1 °C in series [6] and less than 1 °C in series [7].
